Test results from patent US20100144683A1, “METHODS FOR GENERATING MAMMALIAN MODELS OF ATOPIC DISEASES, AND SCREENING FOR THEIR TREATMENT” (ASSOCIATION POUR LA RECHERCHE A L'IGBMC (ARI), priority 2006, published 2010).
“Also recorded” adds a separate entry of the source.

What was measured:
TSLP [1] = experiment: TSLP RNA level (Q-PCR) in skin and organs after topical application of NR agonists; assay type: in vivo, mouse
Description: Four nmoles of ligands dissolved in ethanol were topically applied to whole ears of 6-8-week-old female CD1 wildtype (WT) mice for 4 consecutive days (D1 to D4), and TSLP RNA levels were determined on day 5.
(§1) 1α,25-(OH)2D3, or MC903 and ethanol (vehicle) were applied to WT mouse right and left ears, respectively. Two shaved areas (1 cm^2 each) of dorsal skin were also treated with MC903 or ethanol.

[2] = Calcemia and overall health upon topical application; assay type: in vivo; settings: MC903 4 nmoles daily or 1α,25(OH)2D3 0.25 nmole every second day on ears, 16 days
Description: 1α,25-(OH)2D3, or MC903 and ethanol (vehicle) were applied to WT mouse right and left ears, respectively. Two shaved areas (1 cm^2 each) of dorsal skin were also treated with MC903 or ethanol. […]

cytokine RNA = experiment: Cytokine RNA levels (Q-PCR) in treated ears; assay type: in vivo, mouse; settings: MC903 4 nmoles daily on ears; D16
CYP24A1 = CYP24A1 RNA level (Q-PCR) in MC903-treated ear; assay type: in vivo, mouse; settings: MC903 topically every day; D2-D4
Description: as §1

RXR/VDR heterodimers = target: T1, RXR/VDR heterodimers (Mus musculus, UniProt P48281); experiment: MC903 topical treatment of RXRαβep-/- mice, TSLP RNA (Q-PCR); assay type: in vivo; settings: D4, versus RXRαβ CT
T1 construct: from tissue; host or cells: mouse ear skin (epidermal keratinocytes), topical treatment in vivo
T1 sequence (P48281 1-422): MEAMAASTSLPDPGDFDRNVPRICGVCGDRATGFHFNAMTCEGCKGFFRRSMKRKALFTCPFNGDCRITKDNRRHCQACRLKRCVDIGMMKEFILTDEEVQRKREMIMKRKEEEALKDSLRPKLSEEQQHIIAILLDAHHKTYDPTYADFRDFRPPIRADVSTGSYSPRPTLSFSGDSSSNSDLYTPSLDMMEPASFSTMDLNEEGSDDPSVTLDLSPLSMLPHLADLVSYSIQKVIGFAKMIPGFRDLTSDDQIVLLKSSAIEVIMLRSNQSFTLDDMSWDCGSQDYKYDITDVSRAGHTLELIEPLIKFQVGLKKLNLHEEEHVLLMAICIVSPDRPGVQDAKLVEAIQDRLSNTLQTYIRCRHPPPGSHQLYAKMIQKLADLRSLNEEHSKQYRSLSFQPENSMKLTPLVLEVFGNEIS
From the text: To examine whether the effect of MC903 was transduced through RXR/VDR heterodimers, ears of RXRαβ^ep−/− mice (tamoxifen-treated K14-Cre-ERT2^(tg/0)/RXRαβ^L2/L2/RXRβ^L2/L2; LI et al., 2005, abovementioned), as well as their control littermates (RXRαβ CT), were topically-treated with MC903.

serum IgE and IgG = experiment: Serum IgE and IgG levels (ELISA); assay type: in vivo, mouse; settings: MC903 topically for 16 days on ears
[3] = tested on: OVA-induced asthma mouse model; experiment: Ovalbumin (OVA)-induced asthma mouse model with ear topical MC903; assay type: in vivo; settings: MC903 1.125 nmole on each ear every other day, day 0 to 21, day 22
Description: An experimental ovalbumin (OVA)-induced asthma mouse model was used. Mice were intraperitoneally injected with 50 μg OVA adsorbed on 2 mg aluminium hydroxide (Alum) on days 0 and 7, and were then challenged on days 18, 19, 20 and 21 by intranasal instillations of 10 μg OVA. As controls, mice were intraperitoneally injected with Alum, and receive intranasal instillations of saline. These mice were topically treated with either ethanol (as a control) or MC903 (1.125 nmole) on each ear every other day from day 0 to day 21 to generate an ear AD. Assessment of respiratory function, collection of bronchoalveolar lavage (BAL) and lung were performed on day 22. […] Aerosolized saline was used as control.

TSLP [4] = experiment: TSLP immunohistochemistry on ear and dorsal skin sections; assay type: in vivo, mouse; settings: MC903-treated ear and dorsal skin; D4
From the text: The white arrowhead points to autofluorescent erythrocytes, and white arrows point to the dermal/epidermal junction. (Scale bar, 50 μm).

[5] = tested on: ears of CD1 wildtype (WT) mice; experiment: AD-like phenotype upon long-term ear topical treatment (appearance, histology, IHC); assay type: in vivo, mouse
From the text: White arrows point to the dermal/epidermal junction. FIGS. 2a and b show the ear appearance at day 17 after ethanol and MC903 treatment, respectively. FIGS. 2c and d show hematoxylin and eosin-stained (HE) ear sections of ethanol- and MC903-treated mice at day 17, respectively. Eosinophil-selective cytoplasmic red staining is pointed by arrows in the inset of (d). FIG. 2 u show hematoxylin and eosin-stained (HE) ear sections of ethanol- and 1α,25(OH)2D3 treated mice every second day, at a dose of 0.25 nmole, at day 18 (D18). FIGS. 2 e to n show the result of IHC performed on ear sections from ethanol- or MC903-treated mice at D17, with antibodies against GR1 (e and f), CD3 (g and h), CD4 (i and j), CD8 (k and l) and CD11c (m and n). Yellow color corresponds to staining of antibodies, whereas blue corresponds to DAPI staining of nuclei. FIGS. 2 o and p show the Toluidin blue (TB)-staining of ear sections. Red arrows point to one of the mast cells with intense blue color in the dermis.

eosinophils = experiment: Blood and tissue eosinophilia; assay type: in vivo, mouse; settings: MC903-treated mice
From the text: FIG. 2 s show the hematoxylin and eosin-stained sections of ear draining lymph node and liver of ethanol- and MC903-treated mice at D17. Yellow arrows point to three of many eosinophils (red cytoplasmic staining) in sections of lymph node and liver of MC903-treated mice. (Scale bars, 50 μm).

TSLP [6] = experiment: Serum TSLP levels after topical application; assay type: in vivo, mouse; settings: MC903 topical; D2-D4, undetectable at D0
Description: as §1

VDR = experiment: MC903 topical treatment of VDR control, VDRep-/- and VDR-/- mice; assay type: in vivo, mouse
From the text: To investigate whether the MC903-induced TSLP expression and appearance of an AD-like skin inflammation were mediated through VDR, MC903 was topically applied on ears of “floxed” VDR control (CT) mice (VDR^L2/L2 mice, in which both VDR alleles bear LoxP sites) and of their VDR^ep−/− littermates [K14-Cre^(tg/0)/VDR^L2/L2 mice in which the VDR alleles are selectively ablated in keratinocytes and which were obtained by crossing)K14-Cre^(tg/0) transgenic mice (LI et al., Development, vol. 128, p: 675-688, 2001) with floxed VDR^L2/L2 mice (our unpublished data)].
The FIGS. 3 a and b show the appearance of MC903-treated ears of VDR control (CT) (a) and VDR^ep−/− mice (b) at D17. White arrows in (a) points to lesioned skin.
The FIGS. 3 c and d show Hematoxylin and eosin-stained ear sections. Yellow arrows in inset of (c) point to three of many eosinophils (red cytoplasmic staining) in MC903-treated CT skin. Black arrows point to the dermal/epidermal junction. hf, hair follicle; u, utriculi (resulting from hair follicle degeneration in VDR^ep−/− mice). (Scale bar, 50 μm).

TSLP [7] = experiment: TSLP RNA level (Q-PCR) in skin and organs after topical application of NR agonists; assay type: in vivo, mouse; settings: increasing doses (MC903: 0.4, 1 or 4 nmoles per ear)

In the case of “26,27-cyclo-22-ene-1α,24S-dihydroxyvitamin D3 [MC903]”, the “TSLP RNA in treated dorsal skin” value (TSLP [1]; MC903 on shaved dorsal skin (1 cm^2), D2-D4) was “increased”, the “TSLP RNA levels in treated right ear” value (TSLP [1]; MC903 topically every day on right ear of WT mice, D2, D3, D4, ethanol on left ear) was “increased in right ears, and further increased on D3 and D4” and the “TSLP transcripts in other organs (lung, thymus, salivary gland, tongue, colon, spleen, lymph node, liver)” value (TSLP [1]; MC903 topically on ears, D5) was “no increase”. The “hypercalcemia, overall health, weight loss” value [2] was “No hypercalcemia or overall health impairment and weight loss”, the “TSLP transcripts in treated ears, long-term” value (cytokine RNA) was “markedly increased” and the “Th2-type cytokine transcripts (IL-4, IL-5, IL-13, IL-31, IL10 and IL-6)” value (cytokine RNA) was “significantly increased”. The “expression of Th1-type cytokine IFN-γ” value (cytokine RNA) was “enhanced”, the “expression of Th1-type cytokine TNF-β” value (cytokine RNA) was “unchanged” and the “CYP24A1 transcripts in treated ear” value (CYP24A1) was “increased”. For the same substance, the “induction of TSLP in RXRαβep-/- skin” value (RXR/VDR heterodimers) was “severely reduced”, the “serum IgE and IgG levels” value (serum IgE and IgG) was “increased” and the BAL cell numbers ([3]; OVA model) was “higher BAL cell numbers”. The “airway epithelium hypertrophy (lung sections)” value ([3]; OVA model) was “increased hypertrophy in airway epithelium”, the “lung inflammatory infiltration (lung sections)” value ([3]; OVA model) was “higher perivascular and peribronchial lung inflammatory infiltrations; also recorded: enhanced airway inflammation” and the “airway hyperresponsiveness (AHR), whole-body plethysmography” value ([3]; OVA sensitized and challenged) was “increased airway hyperresponsiveness”. The “TSLP expression by immunohistochemistry in epidermis” value (TSLP [4]) was “readily detected”, the ear appearance ([5]; MC903 4 nmoles daily or 1α,25(OH)2D3 0.25 nmole every second day, from D5, D17) was “reddening and swelling, that worsened with time; also recorded: red, scaly, swollen and crusted” and the “ear histology (hematoxylin/eosin)” value ([5]; MC903 4 nmoles daily, D17, 1α,25-(OH)2D3 0.25 nmole every other day, D18) was “epidermal hyperplasia and a heavy dermal cell infiltrate”. For the same substance, the “CD11c+ dermal dendritic cells (IHC)” value ([5]; MC903-treated ears, D17) was “large increase”, the “GR1-positive cells in dermis (IHC)” value ([5]; MC903-treated ears, D17) was “large number of positive cells” and the “T lymphocytes (CD3+) in dermis (IHC)” value ([5]; MC903-treated ears, D17) was “Numerous”. For the same substance, the “increase of mast cells in the dermis” value ([5]; MC903-treated ears, D17, Toluidin blue staining) was 4 fold, the “eosinophils in ear-draining lymph nodes, liver and spleen” value (eosinophils; D16) was “increased number of eosinophils” and the “blood eosinophils (differential blood cell counts)” value (eosinophils; ethanol-treated mice 204±134) was 693±220 cells/μl. For the same substance, the “serum TSLP levels” value (TSLP [6]) was “increased”, the “skin inflammation in VDR-/- mice” value (VDR) was “no AD-like skin inflammation” and the “TSLP expression (Q-PCR) in skin of VDR CT mice” value (VDR; D4) was “strongly induced”. For the same substance, the “TSLP expression (Q-PCR) in skin of VDR-/- mice” value (VDR; D4) was “not at all”, the “TSLP expression (Q-PCR) in skin of VDRep-/- mutants” value (VDR; D4) was “weakly increased” and the “ear inflammation in VDR CT mice” value (VDR; D17) was “AD-like inflammation was obvious”. The “ear inflammation in VDRep-/- mice” value (VDR; D17) was “did not show any sign of inflammation” and the “dose dependence of TSLP transcripts” value (TSLP [7]) was “dose-dependent increase”.
